One data set concerns MHCC97H. Kind of data set: cells. The settings on record: Homo sapiens, 72 h.
Data set [1] is described as follows: Oral bioavailability in mouse. Type of data set: ADME, organism-based. The settings on record: in vivo.
For data set [2], the system named is EBC-1. Kind of data set: cells. The note with it: Homo sapiens.
In data set [3] the test system is MKN-45. Briefly: cells. The note with it: Homo sapiens.
In data set [4] the test system is MKN-45. Briefly: Antiproliferative activity against human MKN-45 cells assessed as inhibition of cell growth measured after 72 hrs by CellTiter-Glo assay. The settings on record: MKN-45, 72 h. Type of data set: functional, cell-based.
Data set [5] deals with EBC-1. Kind of data set: Antiproliferative activity against human EBC-1 cells assessed as inhibition of cell growth measured after 72 hrs by CellTiter-Glo assay. It counts as functional, cell-based. The settings on record: EBC-1, 72 h. For orientation: ATP-based viability assays read luminescence as a measure of living cells.
The next data set relates to NCI-H460. Briefly: Antiproliferative activity against human NCI-H460 cells assessed as inhibition of cell growth measured after 48 hrs by MTS assay. Type of data set: functional, cell-based. The note with it: NCI-H460, 48 h.
The test system of data set [6] is MKN-45. Briefly: Antiproliferative activity against human MKN-45 cells assessed as inhibition of cell growth measured after 48 hrs by MTS assay. The settings on record: MKN-45, 48 h. Type of data set: functional, cell-based. (Formazan colour is commonly taken as a measure of viable cells.)
The subject of data set [7] is A549. Kind of data set: Antiproliferative activity against human A549 cells assessed as inhibition of cell growth measured after 48 hrs by MTS assay. The note with it: A549, 48 h. It counts as functional, cell-based.
The subject of the next data set is NCI-H441. Briefly: Antiproliferative activity against human NCI-H441 cells assessed as inhibition of cell growth measured after 48 hrs by MTS assay. Type of data set: functional, cell-based. The note with it: NCI-H441, 48 h.
The test system of the next data set is SNU-5. Kind of data set: cells. The settings on record: Homo sapiens.
For data set [8], the system named is Hs746T. Kind of data set: cells. The settings on record: Homo sapiens.
Data set [9] relates to Hs746T. Briefly: Antiproliferative activity against human Hs746T cells assessed as inhibition of cell growth measured after 4 days by CellTiter-Glo assay. It counts as functional, cell-based. The settings on record: 96 h.
The subject of data set [10] is EBC-1. Briefly: Antiproliferative activity against human EBC-1 cells assessed as inhibition of cell growth measured after 3 days by CellTiter-Glo assay. Type of data set: functional, cell-based. The settings on record: EBC-1, 72 h.
In data set [11] the test system is A549. Briefly: Antiproliferative activity against human A549 cells assessed as inhibition of cell growth. Type of data set: functional, cell-based.
For the next data set, the system named is NCI-H1993. Kind of data set: Antiproliferative activity against human NCI-H1993 cells assessed as inhibition of cell growth. It counts as functional, cell-based.
In a further data set the test system is NCI-H1703. Briefly: Antiproliferative activity against human NCI-H1703 cells assessed as inhibition of cell growth. Type of data set: functional, cell-based.
For the next data set, the system named is GTL 16 cell line. Briefly: Antiproliferative activity against human GTL 16 cell line assessed as inhibition of cell growth. It counts as functional, cell-based.
In data set [12] the target is T1, Hepatocyte growth factor receptor (Homo sapiens, UniProt P08581). Kind of data set: Inhibition of human GST tagged c-Met CD expressed in Sf9 cells using poly(Glu:Tyr) as substrate incubated for 5 mins in presence of ATP by horseradish peroxidase based ELISA method. (In general: An ELISA detects its analyte on a solid surface through an enzyme-linked reagent.)
For data set [13], the system named is MKN-45. Kind of data set: Antiproliferative activity against human MKN-45 cells assessed as inhibition of cell growth measured after 72 hrs by Cell Titer blue assay. The settings on record: MKN-45, 72 h. It counts as functional, cell-based.
In data set [14] the target is T1, Hepatocyte growth factor receptor. Briefly: Inhibition of MET (unknown origin).
The next data set has as its system CT26. Briefly: Antiproliferative activity against CT26 cells assessed as inhibition of cell growth. Type of data set: functional, cell-based. The settings on record: Mus musculus.
Data set [15] is described as follows: Metabolic stability in mouse liver microsomes assessed as half life. Type of data set: ADME, Microsome.
A short description of data set [16]: Metabolic stability in human liver microsomes assessed as half life. Type of data set: ADME, Microsome.
The nature of data set [17]: Metabolic stability in rat liver microsomes assessed as half life. Type of data set: ADME, Microsome.

A word on the IC50: it is the concentration that inhibits the measured activity by half. In the data set on MHCC97H, `[2H]C([2H])[C@]([2H])(c1cccc(-c2ncc(OCC3CCN(C)CC3)cn2)c1)n1nc(-c2cccc(C#N)c2)ccc1=O` showed a concentration for half-maximal inhibition (IC50) of 37 nM. Also, in [1], the bioavailability stood at 104%.
With `Cn1cc(-c2ccc3nnc(C(F)(F)c4ccc5ncccc5c4)n3n2)cn1` [JNJ-38877605], the results for the IC50 in the data set with EBC-1 [2] and with MKN-45 [3] were 8.4 nM and 18.6 nM, respectively.
On to `[O-][S+](c1c(Cl)ccc(F)c1Cl)c1c[nH]c2ncc(-c3cnn(C4CCNCC4)c3)cc12` (centres undefined), for which the 50% inhibitory concentration (IC50) is 1490 nM with MKN-45 [4] and 1590 nM with EBC-1 [5].
Take `O=C1NC(=O)[C@@H](c2cn3c4c(cccc24)CCC3)[C@@H]1c1c[nH]c2ccccc12` [TIVANTINIB]: the IC50 amounted to 600 nM in the data set on NCI-H460, 580 nM in the data set on MKN-45 [6], 590 nM in the data set on A549 [7] and 300 nM in the data set with NCI-H441.
On to `CCN1Cc2c(ccc(F)c2C#N)O[C@@H](C)CNC(=O)c2c(N)nn3ccc1nc23` [ELZOVANTINIB], for which the results for the half-maximal inhibitory concentration (IC50) in the data set on SNU-5 and in the data set with MKN-45 [3] were 0.17 nM and 0.2 nM, respectively.
`Cc1c(C(=O)Nc2ccc(Oc3ccnc4cc(OCC(C)(C)O)ccc34)c(F)c2)c(=O)n(-c2ccccc2)n1C` [NINGETINIB]: the IC50 worked out at 140 nM in the data set on Hs746T [8], 60 nM in the data set with SNU-5 and 7 nM with MKN-45 [3].
On to `CCN1Cc2c(ccc(F)c2C#N)O[C@H](C)CNC(=O)c2c(N)nn3ccc1nc23`, for which, in the data set with MKN-45 [3], it took 251 nM to reach half-maximal inhibition (IC50).
Consider `CN1CCN(Cc2ccc(-c3cnc(N4CCOC(Cn5nnc6ncc(-c7cnn(C)c7)nc65)C4)nc3)cc2)CC1` (centres undefined), for which the IC50 with Hs746T [8] is 2 nM; in the data set with EBC-1 [2], 2.22 nM; with SNU-5, 4.34 nM; in the data set on MKN-45 [3], 3.18 nM.
As for `CC(C)(O)CN1CCC(COc2cnc(-c3cccc(Cn4c(=O)ccn5c6cc(C#N)ccc6nc45)c3)nc2)CC1`, in data set [1], the bioavailability was determined as 82.3%. For the same compound, the IC50 with Hs746T [9] amounted to 1.5 nM; with EBC-1 [10], 4.81 nM.
As to `[2H]c1ccc2cc(C(F)(F)c3nnc4ccc(-c5cnn(C)c5)nn34)ccc2n1`, the half-maximal inhibitory concentration (IC50) in the data set on EBC-1 [2] came to 17 nM; in the data set with MKN-45 [3], 25 nM.
As for `Fc1ccc(Cl)c(C2(c3n[nH]c4ncc(-c5cnn(C6CCNCC6)c5)cc34)CC2)c1Cl`, the IC50 is 670 nM in the data set on MKN-45 [4] and 1190 nM with EBC-1 [5].
Consider `CN1CCN(C2CCN(C(=O)Nc3cc(Oc4ccc(NC(=O)C5(C(=O)Nc6ccc(F)cc6)CC5)c(F)c4)ccn3)CC2)CC1` [GOLVATINIB], for which the IC50 with Hs746T [8] worked out at 23 nM; in the data set on EBC-1 [2] it was 24 nM; in the data set with SNU-5, 6.2 nM; with MKN-45 [3], 37 nM.
Consider `Cc1ccc(C(=O)Nc2ccc(Oc3cc4cnn(C)c4cc3-c3cn[nH]c3)c(F)c2)c(=O)n1-c1ccc(F)cc1` [MERESTINIB], for which the half-inhibitory concentration (IC50) came out at 628 nM in the data set on A549 [11], 9.28 nM in the data set on NCI-H1993 and 72.9 nM with NCI-H1703.
In the case of `CCOc1ccn(-c2ccc(F)cc2)c(=O)c1C(=O)Nc1ccc(Oc2ccnc(N)c2Cl)c(F)c1` [BMS-777607], in the data set with GTL 16 cell line, the 50% inhibitory concentration (IC50) was found to be 100 nM.
As for `Cc1[nH]c(/C=C2\C(=O)Nc3ccc(S(=O)(=O)N(C)c4cccc(Cl)c4)cc32)c(C)c1C(=O)N1CCN(C)CC1`, the IC50 in [12] amounted to 10 nM.
As to `C[C@@H](Oc1cc(C(=O)Nc2ccc(C(=O)N3CCN(C)CC3)cc2)nnc1N)c1c(Cl)ccc(F)c1Cl`, in the data set on MKN-45 [13], the 50% inhibitory concentration (IC50) is 150 nM.
The compound `C[C@H]1CNC(=O)c2c(N)nn3ccc(nc23)NCc2c(ccc(F)c2C#N)O1` had an IC50 in the data set with MKN-45 [3] of 297 nM.
`COc1ccc2c(Oc3ccc(NC(=O)c4c(C)n(CC(C)(C)O)n(-c5ccccc5)c4=O)nc3)ccnc2c1` had an IC50 in [14] of 2 nM.
As to `COc1cc2c(Oc3ccc(-c4cnc(Nc5ccc(F)cc5)n(C)c4=O)nc3)ccnc2cc1OCCCN1CCOCC1`, the IC50 in the data set on CT26 was determined as 59 nM.
One may read the half-life as how long it takes for the measured level to halve. Regarding `C[C@H](c1cccc(-c2ncc(OCC3CCN(C)CC3)cn2)c1)n1cc(-c2cc(C#N)ccn2)cc(F)c1=O`, the half-life turned out to be 49.1 min in data set [15], 62.1 min in [16] and 36.5 min in data set [17]. This compound also yielded an IC50 in the data set with MHCC97H of 8.8 nM.

The values are drawn from ChEMBL document CHEMBL5352505, “Targeting MET: Discovery of Small Molecule Inhibitors as Non-Small Cell Lung Cancer Therapy” (J Med Chem, 2023).
